This is an account of results in patent publication US20020103261A1, “Compositions for injection or intravenous administration for the treatment of internal infection or inflammation in humans and animals” (priority 2000, published 2002).

The conditions of series [1]: inactive metabolites after enzymatic degradation; cited from earlier work.
A short description of another series: Solubility in lipids. The class given is physicochemical.

Regarding `Cc1ccc(C(C)C)c(O)c1` [isopropyl-cresol, 5-methyl-2[1-methylethyl]phenol], in series [1], the “metabolites expired from the lungs in the form of CO2” value is listed as 10%.

Take `Cc1ccc(C(C)C)cc1O` [isopropyl-o-cresol, 5-isopropyl-2-methylphenol]: the solubility in lipids result in “Solubility in lipids” is recorded as “soluble in lipids”. Moreover, in series [1], the “metabolites excreted in the urine” value is listed as “approx. 90%” and the “metabolites expired from the lungs in the form of CO2” value was 10%.
